# Patent publication US20220111122A1, “COMPOSITION FOR IMPROVED BONE FRACTURE HEALING” (CORTHOTEC LTD, priority 2019, published 2022)
# How the values were obtained:
# [1] = system: osteoclast activity (as measured by bone resorption); test: zoledronate concentration versus bone resorption (FIG. 3); type: cell-based; conditions: osteoclast activity decreases significantly compared to lower concentrations
# Excerpt: (§1) The graphs in FIGS. 3 and 4 depict the optimal concentrations of zoledronate (derived from zoledronic acid as the bisphosphonate) required to suppress bone resorption by means of a proportionate decrease in osteoclast number.
# osteoclast number = test: zoledronate concentration versus osteoclast number (FIG. 4); type: cell-based; conditions: compared to lower concentrations
# Excerpt: as §1
smiles,measurement,setting,value
O=P(O)(O)C(O)(Cn1ccnc1)P(=O)(O)O [zoledronic acid],concentration of optimal efficacy to suppress bone resorption,[1],approximately 10^−6 M
same,concentration of optimal efficacy to decrease osteoclast number,osteoclast number,approximately 10^−6 M
